Where “and” joins values, the source holds several entries; their conditions need not be identical. Identical values can stand only once. Like-named read-outs stand apart in the source and are kept apart here.
Tests used:
[1] = In vivo pharmacokinetics, IP injection or oral gavage, 10 mg/kg; parameters: species or system mouse; settings: for Kp at 3 h: brain/plasma, read-out: Brain/plasma ratio at 3 h; for Cmax: plasma
Experimental: Based on its strong performance in the microsome assay, 12k was selected for further pharmacokinetic analysis in vivo. Compounds 1 and 12k were administered to 8 week-old wild-type […] mice at 10 mg/kg through intraperitoneal (IP) injection or oral gavage (OG). Brains and plasma were collected across 4 time points over 24 h for LC-MS/MS analysis.
Compounds 1 and 12k were dissolved in DMSO to 40 mg/mL. For in vivo administration, the DMSO stock was further diluted to 2 mg/mL in a vehicle containing 40% PEG-400 (Sigma) and 55% of a (2-hydroxypropyl)-beta-cyclodextrin solution (20% in nanopure water, Sigma). Compounds were delivered at 10 mg/kg by intraperitoneal injection or oral gavage to 8 week-old male wild-type C57Bl6J mice (Jackson). After 15 min, 3 h, 8 h or 24h, animals were anesthetized with a mixture of ketamine (100 mg/kg) and xylazine (10 mg/kg), then decapitated to collect trunk blood and dissect fresh brain tissue. Blood samples were treated with EDTA solution (50 mM final concentration) to prevent coagulation and centrifuged for 10 min at 845 rcf at 4° to separate plasma. Fresh brains were lysed in 5 volumes of ddH2O.
Plasma samples were transferred to Eppendorf tubes (50 μL per sample) and diluted with acetonitrile (200 μL). The samples were sonicated for 1 minute followed by centrifugation at 16,000 rpm for 10 minutes. The supernatant was transferred to another Eppendorf tube and the solvent evaporated overnight. The samples were reconstituted in a mixture of 40 μL acetonitrile and 10 μL water transferred to a sample vial with insert, and analyzed by LC-MS.
Homogenized brain samples (250 μL) were transferred to Eppendorf tubes and diluted with acetonitrile (750 μL). The samples were sonicated for 1 minute followed by centrifugation at 16,000 rpm for 10 minutes. The supernatant (900 μL) was transferred to another Eppendorf tube and the solvent evaporated overnight. The samples were reconstituted in a mixture of 80 μL acetonitrile and 20 μL water, transferred to a sample vial with insert, and analyzed by LC-MS.
LC-MS analysis was performed on a platform comprising a Thermo Scientific Dionex Ultimate 3000 and a Bruker amaZon SL equipped with an electrospray ionization source controlled by Bruker Hystar 3.2. The compound concentration in each plasma sample was determined using a calibration curve. Chromatographic separation was performed by injecting 10 μL of the sample onto an Agilent Eclipse Plus C18 column (2.1×50 mm, 3.5 μm) maintained at 20° C. The flow rate was maintained at 400 μL/min. The initial flow conditions were 60% solvent A (water containing 0.1% acetic acid) and 40% solvent B (methanol containing 0.1% acetic acid). Solvent B was raised to 60% over 0.25 minutes and to 70% by 6.75 minutes.

[2] = target: T1, panel of 371 human kinases (Homo sapiens, UniProt Q16832); assay: Radiolabeled ATP kinase assay, panel of 371 kinases (Table S6); format: biochemical; settings: DDR2; 0.1 μM; 10 μM ATP; read-out: % Enzyme Activity (relative to DMSO controls)
T1 construct: purchased Reaction Biology Corp
Source text: (§1) ; FIG. 38C). […]. Further targeted analyses, such as genetic knock-down or knock-out, may be warranted to parse the role of these additional kinases in our model of neurodegeneration.

[3] = target: T2, panel of 371 human kinases (Homo sapiens, UniProt P53355); assay: as above; format: biochemical; settings: DAPK1; 0.1 μM; 10 μM ATP; read-out: % Enzyme Activity (relative to DMSO controls)
T2 construct: purchased Reaction Biology Corp
Source text: as §1

[4] = target: T3, panel of 371 human kinases (Homo sapiens, UniProt P08922); assay: as above; format: biochemical; settings: ROS/ROS1; 0.1 μM; 10 μM ATP; read-out: % Enzyme Activity (relative to DMSO controls)
T3 construct: purchased Reaction Biology Corp
Source text: as §1

[5] = target: T4, panel of 371 human kinases (Homo sapiens, UniProt P43250); assay: as above; format: biochemical; settings: GRK6; 0.1 μM; 10 μM ATP; read-out: % Enzyme Activity (relative to DMSO controls)
T4 construct: purchased Reaction Biology Corp
Source text: as §1

[6] = target: T5, panel of 371 human kinases (Homo sapiens, UniProt O15111); assay: as above; format: biochemical; settings: IKKa/CHUK; 0.1 μM; 10 μM ATP; read-out: % Enzyme Activity (relative to DMSO controls)
T5 construct: purchased Reaction Biology Corp
Source text: as §1

[7] = target: T6, panel of 371 human kinases (Homo sapiens, UniProt Q15303); assay: as above; format: biochemical; settings: ERBB4/HER4; 0.1 μM; 10 μM ATP; read-out: % Enzyme Activity (relative to DMSO controls)
T6 construct: purchased Reaction Biology Corp
Source text: as §1

[8] = target: T7, panel of 371 human kinases (Homo sapiens, UniProt P45985); assay: as above; format: biochemical; settings: MKK4; 0.1 μM; 10 μM ATP; read-out: % Enzyme Activity (relative to DMSO controls)
T7 construct: purchased Reaction Biology Corp
Source text: as §1

[9] = target: T8, panel of 371 human kinases (Homo sapiens, UniProt O75676); assay: as above; format: biochemical; settings: MSK2/RPS6KA4; 0.1 μM; 10 μM ATP; read-out: % Enzyme Activity (relative to DMSO controls)
T8 construct: purchased Reaction Biology Corp
Source text: as §1

[10] = target: T9, panel of 371 human kinases (Homo sapiens, UniProt Q86UE8); assay: as above; format: biochemical; settings: TLK2; 0.1 μM; 10 μM ATP; read-out: % Enzyme Activity (relative to DMSO controls)
T9 construct: purchased Reaction Biology Corp
Source text: as §1

[11] = target: T10, panel of 371 human kinases (Homo sapiens, UniProt P53778); assay: as above; format: biochemical; settings: P38g; 0.1 μM; 10 μM ATP; read-out: % Enzyme Activity (relative to DMSO controls)
T10 construct: purchased Reaction Biology Corp
Source text: as §1

[12] = target: T11, panel of 371 human kinases (Homo sapiens, UniProt Q15835); assay: as above; format: biochemical; settings: GRK1; 0.1 μM; 10 μM ATP; read-out: % Enzyme Activity (relative to DMSO controls)
T11 construct: purchased Reaction Biology Corp
Source text: as §1

[13] = target: T12, panel of 371 human kinases (Homo sapiens, UniProt Q86Z02); assay: as above; format: biochemical; settings: HIPK1; 0.1 μM; 10 μM ATP; read-out: % Enzyme Activity (relative to DMSO controls)
T12 construct: purchased Reaction Biology Corp
Source text: as §1

[14] = target: T13, panel of 371 human kinases (Homo sapiens, UniProt P16591); assay: as above; format: biochemical; settings: FER; 0.1 μM; 10 μM ATP; read-out: % Enzyme Activity (relative to DMSO controls)
T13 construct: purchased Reaction Biology Corp
Source text: as §1

T2 sequence (P53355 whole entry): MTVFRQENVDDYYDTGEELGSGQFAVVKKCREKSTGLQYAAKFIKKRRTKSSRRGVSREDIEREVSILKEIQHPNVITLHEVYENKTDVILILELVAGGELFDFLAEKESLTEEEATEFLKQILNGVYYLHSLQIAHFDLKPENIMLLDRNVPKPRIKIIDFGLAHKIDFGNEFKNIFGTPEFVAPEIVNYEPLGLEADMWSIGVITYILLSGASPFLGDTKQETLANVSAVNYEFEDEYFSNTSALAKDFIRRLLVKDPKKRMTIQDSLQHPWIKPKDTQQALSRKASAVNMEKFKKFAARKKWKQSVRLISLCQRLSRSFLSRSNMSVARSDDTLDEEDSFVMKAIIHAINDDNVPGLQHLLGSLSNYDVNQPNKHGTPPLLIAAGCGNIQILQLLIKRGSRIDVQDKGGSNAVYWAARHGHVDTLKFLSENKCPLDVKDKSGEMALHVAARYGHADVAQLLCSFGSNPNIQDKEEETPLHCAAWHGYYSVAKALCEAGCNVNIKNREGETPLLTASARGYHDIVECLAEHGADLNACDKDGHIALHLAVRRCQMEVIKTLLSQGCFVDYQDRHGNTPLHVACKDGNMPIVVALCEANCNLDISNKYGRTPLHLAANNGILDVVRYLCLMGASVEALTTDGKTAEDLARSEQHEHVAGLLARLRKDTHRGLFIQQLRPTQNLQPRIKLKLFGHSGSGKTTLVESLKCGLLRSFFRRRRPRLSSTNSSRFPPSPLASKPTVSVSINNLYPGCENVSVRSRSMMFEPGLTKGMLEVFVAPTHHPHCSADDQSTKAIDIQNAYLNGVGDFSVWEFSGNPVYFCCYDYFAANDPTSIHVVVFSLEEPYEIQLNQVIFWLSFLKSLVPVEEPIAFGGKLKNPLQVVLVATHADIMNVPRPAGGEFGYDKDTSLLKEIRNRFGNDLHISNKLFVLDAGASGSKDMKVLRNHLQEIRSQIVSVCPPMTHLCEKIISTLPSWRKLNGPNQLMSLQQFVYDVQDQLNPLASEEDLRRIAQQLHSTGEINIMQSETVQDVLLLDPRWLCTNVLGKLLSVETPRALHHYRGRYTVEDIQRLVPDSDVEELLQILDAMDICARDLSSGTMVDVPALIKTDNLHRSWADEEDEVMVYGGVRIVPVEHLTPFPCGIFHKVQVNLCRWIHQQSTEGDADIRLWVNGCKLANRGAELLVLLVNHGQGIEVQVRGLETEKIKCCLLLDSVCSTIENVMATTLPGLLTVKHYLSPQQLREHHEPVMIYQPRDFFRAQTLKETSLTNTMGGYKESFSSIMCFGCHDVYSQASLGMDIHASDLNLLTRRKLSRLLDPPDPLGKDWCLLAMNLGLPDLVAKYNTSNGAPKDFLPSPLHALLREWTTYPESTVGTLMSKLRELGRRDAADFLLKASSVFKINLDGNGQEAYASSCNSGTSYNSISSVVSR
T6 sequence (Q15303 26-1308): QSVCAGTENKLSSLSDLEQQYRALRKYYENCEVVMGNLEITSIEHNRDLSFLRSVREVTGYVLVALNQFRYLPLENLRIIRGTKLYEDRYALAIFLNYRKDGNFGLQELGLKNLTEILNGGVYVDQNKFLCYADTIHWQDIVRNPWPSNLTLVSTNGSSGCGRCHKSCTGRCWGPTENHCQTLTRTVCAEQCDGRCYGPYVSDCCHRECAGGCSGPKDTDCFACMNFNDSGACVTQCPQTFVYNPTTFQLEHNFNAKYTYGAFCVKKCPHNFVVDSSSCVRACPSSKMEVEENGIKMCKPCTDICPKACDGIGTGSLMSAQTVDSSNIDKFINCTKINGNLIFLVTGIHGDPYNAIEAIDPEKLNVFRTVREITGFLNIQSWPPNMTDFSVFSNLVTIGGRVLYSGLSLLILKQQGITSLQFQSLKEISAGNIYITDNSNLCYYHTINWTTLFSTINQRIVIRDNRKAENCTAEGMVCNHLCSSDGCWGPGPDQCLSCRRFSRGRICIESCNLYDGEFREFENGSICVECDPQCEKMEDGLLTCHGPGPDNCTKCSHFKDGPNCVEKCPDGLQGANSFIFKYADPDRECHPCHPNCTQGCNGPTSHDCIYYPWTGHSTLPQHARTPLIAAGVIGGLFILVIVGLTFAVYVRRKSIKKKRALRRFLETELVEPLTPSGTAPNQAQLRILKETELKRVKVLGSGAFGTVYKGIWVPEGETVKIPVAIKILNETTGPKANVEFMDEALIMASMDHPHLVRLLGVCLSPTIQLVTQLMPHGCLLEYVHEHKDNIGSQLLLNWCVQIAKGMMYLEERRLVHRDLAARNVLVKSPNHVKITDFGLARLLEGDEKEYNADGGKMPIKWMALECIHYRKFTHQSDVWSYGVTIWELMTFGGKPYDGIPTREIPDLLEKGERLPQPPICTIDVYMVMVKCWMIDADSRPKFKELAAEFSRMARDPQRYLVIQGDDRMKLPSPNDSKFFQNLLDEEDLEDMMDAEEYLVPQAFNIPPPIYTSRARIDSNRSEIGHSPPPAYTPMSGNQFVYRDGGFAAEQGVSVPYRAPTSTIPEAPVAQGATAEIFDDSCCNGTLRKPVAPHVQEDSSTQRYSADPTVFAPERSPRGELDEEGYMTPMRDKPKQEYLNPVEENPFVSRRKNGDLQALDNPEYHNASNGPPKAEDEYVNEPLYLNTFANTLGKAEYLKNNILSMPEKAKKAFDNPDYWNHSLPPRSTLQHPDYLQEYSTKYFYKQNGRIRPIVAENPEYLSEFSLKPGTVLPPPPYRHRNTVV
T11 sequence (Q15835 whole entry): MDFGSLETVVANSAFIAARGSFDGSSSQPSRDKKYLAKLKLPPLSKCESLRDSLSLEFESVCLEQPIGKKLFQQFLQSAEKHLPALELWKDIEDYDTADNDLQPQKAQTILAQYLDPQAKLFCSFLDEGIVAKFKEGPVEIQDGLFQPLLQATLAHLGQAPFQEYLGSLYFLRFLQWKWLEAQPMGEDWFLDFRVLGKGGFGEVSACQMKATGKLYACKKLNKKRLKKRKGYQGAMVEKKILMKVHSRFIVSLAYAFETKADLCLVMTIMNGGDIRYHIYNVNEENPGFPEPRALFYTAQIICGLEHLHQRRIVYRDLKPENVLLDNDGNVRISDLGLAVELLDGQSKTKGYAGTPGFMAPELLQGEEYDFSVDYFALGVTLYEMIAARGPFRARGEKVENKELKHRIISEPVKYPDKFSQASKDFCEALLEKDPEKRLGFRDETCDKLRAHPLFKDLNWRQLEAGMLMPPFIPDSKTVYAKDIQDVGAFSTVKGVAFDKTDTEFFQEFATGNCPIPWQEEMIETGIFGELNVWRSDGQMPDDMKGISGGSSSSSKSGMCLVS
T4 sequence (P43250 whole entry): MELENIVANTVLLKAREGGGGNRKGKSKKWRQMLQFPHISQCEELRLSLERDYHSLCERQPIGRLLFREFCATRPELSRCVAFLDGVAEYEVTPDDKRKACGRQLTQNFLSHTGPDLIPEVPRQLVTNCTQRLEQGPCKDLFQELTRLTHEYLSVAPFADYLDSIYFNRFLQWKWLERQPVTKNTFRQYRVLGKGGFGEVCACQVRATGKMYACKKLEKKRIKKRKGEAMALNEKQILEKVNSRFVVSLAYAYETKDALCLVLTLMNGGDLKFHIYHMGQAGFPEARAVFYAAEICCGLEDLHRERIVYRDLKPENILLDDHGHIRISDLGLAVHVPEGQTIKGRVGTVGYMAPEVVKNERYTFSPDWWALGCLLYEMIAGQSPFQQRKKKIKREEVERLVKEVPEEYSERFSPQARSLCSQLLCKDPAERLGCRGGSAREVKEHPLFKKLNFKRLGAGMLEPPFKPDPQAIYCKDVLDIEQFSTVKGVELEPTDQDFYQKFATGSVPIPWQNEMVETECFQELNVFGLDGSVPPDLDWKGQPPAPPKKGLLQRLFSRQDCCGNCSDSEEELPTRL
T1 sequence (Q16832 22-855): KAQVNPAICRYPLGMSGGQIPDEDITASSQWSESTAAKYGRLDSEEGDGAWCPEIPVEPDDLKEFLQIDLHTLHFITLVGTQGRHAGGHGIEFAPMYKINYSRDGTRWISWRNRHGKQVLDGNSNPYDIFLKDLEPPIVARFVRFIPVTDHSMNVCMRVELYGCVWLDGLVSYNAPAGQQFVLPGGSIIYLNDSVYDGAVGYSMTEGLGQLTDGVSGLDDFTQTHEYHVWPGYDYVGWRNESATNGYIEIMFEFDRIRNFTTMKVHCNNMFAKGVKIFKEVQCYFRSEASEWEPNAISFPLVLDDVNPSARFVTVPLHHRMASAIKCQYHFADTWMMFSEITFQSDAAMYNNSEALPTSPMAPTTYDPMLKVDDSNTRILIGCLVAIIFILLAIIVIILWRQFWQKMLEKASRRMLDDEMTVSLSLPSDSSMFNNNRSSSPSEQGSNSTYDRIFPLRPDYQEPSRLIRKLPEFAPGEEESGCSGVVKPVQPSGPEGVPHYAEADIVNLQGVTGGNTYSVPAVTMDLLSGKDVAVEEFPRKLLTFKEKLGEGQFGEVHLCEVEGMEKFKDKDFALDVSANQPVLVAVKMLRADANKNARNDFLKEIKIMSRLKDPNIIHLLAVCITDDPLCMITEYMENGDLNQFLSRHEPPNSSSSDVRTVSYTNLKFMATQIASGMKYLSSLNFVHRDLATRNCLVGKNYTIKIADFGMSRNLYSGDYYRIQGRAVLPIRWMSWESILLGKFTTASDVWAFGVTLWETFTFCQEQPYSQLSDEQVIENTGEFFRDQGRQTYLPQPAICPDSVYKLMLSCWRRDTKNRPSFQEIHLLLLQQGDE
T7 sequence (P45985 whole entry): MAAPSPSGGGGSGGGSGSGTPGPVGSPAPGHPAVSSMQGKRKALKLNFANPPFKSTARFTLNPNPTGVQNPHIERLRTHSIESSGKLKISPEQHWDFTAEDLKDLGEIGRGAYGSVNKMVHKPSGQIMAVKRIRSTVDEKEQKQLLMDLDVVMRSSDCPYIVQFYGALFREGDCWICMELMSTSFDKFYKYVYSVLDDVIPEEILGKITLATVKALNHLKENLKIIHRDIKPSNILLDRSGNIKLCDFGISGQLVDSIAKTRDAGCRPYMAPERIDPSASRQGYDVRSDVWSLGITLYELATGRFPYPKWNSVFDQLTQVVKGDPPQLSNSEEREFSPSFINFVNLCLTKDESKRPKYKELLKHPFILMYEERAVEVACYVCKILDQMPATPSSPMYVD

Structure (SMILES)	Oral bioavailability (% F) based on plasma measurements in IP vs. OG-treated animals [1]	Brain AUC ([1]; IP)	Brain mean Cmax ([1]; IP)	Plasma AUC ([1]; IP)	Brain AUC ([1]; OG)	Brain mean Cmax ([1]; OG)	Plasma AUC ([1]; OG)	Kp at 3 h ([1]; male, mouse, ip)	Kp at 3 h ([1]; male, mouse, oral, OG)	Cmax ([1]; male, mouse, ip)	Cmax ([1]; male, mouse, po, OG)	remaining activity at 0.1 µM [2]	remaining activity at 0.1 µM [3]	remaining activity at 0.1 µM [4]	remaining activity at 0.1 µM [5]	remaining activity at 0.1 µM [6]	remaining activity at 0.1 µM [7]	remaining activity at 0.1 µM [8]	remaining activity at 0.1 µM [9]	remaining activity at 0.1 µM [10]	also measured
OCCN1CCN(Cc2ccc(-c3cnc4[nH]cc(-c5cccc(Cl)c5)c4c3)cc2)CC1 [Compound 12k, 2-(4-(4-(3-(3-Chlorophenyl)-1H-pyrrolo[2,3-b]pyridin-5-yl)benzyl)piperazin-1-yl)ethan-1-ol]	73%	11570 ng·h/mL	1162.23 µg/kg	3899 ng·h/mL	8429 ng·h/mL	658.88 µg/kg	2785 ng·h/mL	3.91	2.58	454 ng/mL	184 ng/mL	100%	95.4%	94.2%	95.2%	101%	97.2%	110%	110%	95.2%	brain Cmax ([1]; IP-injected): 1162 ng/g and 2.60 μM; bioavailability ([1]; male, mouse, brain, po, read-out: Oral bioavailability (% F) by comparing brain measurements): 73%; remaining activity at 0.1 µM [11]: 99.7%; remaining activity at 0.1 µM [12]: 92%; remaining activity at 0.1 µM [13]: 96%; remaining activity at 0.1 µM [14]: 103%
CN1CCN(Cc2ccc(-c3cnc4[nH]cc(-c5ccc6[nH]ccc6c5)c4c3)cc2)CC1 [Compound 1, 3-(1H-Indol-5-yl)-5-(4-((4-methylpiperazin-1-yl)methyl)phenyl)-1H-pyrrolo[2,3-b]pyridine, reference compound]	46%	1568 ng·h/mL	208.83 µg/kg	7328 ng·h/mL	567.2 ng·h/mL	83.35 µg/kg	3401 ng·h/mL	0.25	0.18	972 ng/mL	476 ng/mL	102%	96.3%	96%	91.5%	96.8%	104%	105%	114%	93%	remaining activity at 0.1 µM [11]: 108%; remaining activity at 0.1 µM [12]: 107%; remaining activity at 0.1 µM [13]: 106%; remaining activity at 0.1 µM [14]: 94.8%
